We go through one compound from paper PMC12410356 (International Journal for Parasitology: Drugs and Drug …, 2025).

Data set [1] concerns E. multilocularis GL cells. The data set is described as follows: Germinal layer cell viability assay (CellTiter-Glo). The class given is cell-based, Echinococcus multilocularis. The procedure: The isolation of GL cells was conducted according to ([Kaethner et al., 2023]). Briefly, conditioned DMEM (cDMEM) was prepared prior to isolation. For the preparation of cDMEM, 1 × 10^6 RH cells and 10 × 10^6 RH cells incubated in DMEM supplemented with 10 % FBS, penicillin (100 U/mL), streptomycin (100 μg/mL) and tetracycline (5 μg/mL) for six or four days, respectively, at 37 °C under a humid, 5 % CO2 atmosphere. The supernatant of each was mixed 1:1 and sterile filtrated, resulting in cDMEM. Metacestode vesicles of at least 6 months of age were washed with PBS, incubated in distilled H2O for 2.5 min and subsequently mechanically disrupted. The resulting pellet was resuspended in 7 vol of pre-warmed 0.05 % Trypsin/0.02 % EDTA and incubated at 37 °C for 30 min. GL cells were extracted from the laminated layer by vigorous shaking followed by filtration through a 30 μm mesh (Sefar AG, Heiden, Switzerland) and separated from calcareous corpuscles by short centrifugation at 50×g for 30 s at RT. The isolated cells were centrifuged for 10 min at 600×g and RT and the pellet was resuspended in cDMEM. The cell suspension was diluted 1:100 in PBS to measure the OD600. An OD600 value of 0.1 of this dilution was defined as one arbitrary unit (AU) per μL of the undiluted cell suspension corresponding to 0.97 ± 0.11 μg of total protein for the GL cells as measured via Pierce™ bicinchoninic acid (BCA) Protein Assay Kit according to the manufacturer's protocol (Fisher Scientific AG, Reinach, Switzerland). 1′000 AU per 5 mL of cDMEM were cultured at 37 °C overnight under a humid nitrogen atmosphere. The next day, 2′000 AU of GL cells were combined and further cultured for 3 h at 37 °C under a humid nitrogen atmosphere before they were used for further experiments.
To assess effects of compounds on the cell viability of isolated E. multilocularis GL cells, the protocol was applied as previously described ([Kaethner et al., 2023]). In short, 15 AU of GL cells were distributed into each well of a black 384-well plate. Compounds dissolved in DMSO (alexidine, carbendazim, ESI-09, MMV1581545 and oxfendazole) were added to final concentrations ranging from 80 to 0.31 μM (1:2 serial dilution) and the cells were cultured for 5 days at 37 °C under a humid, microaerobic atmosphere (85 % N2, 10 % CO2, 5 % O2). DMSO with the respective concentration was used as a solvent control. Viability was measured using the CellTiter-Glo® kit. Luminescence was measured using a HIDEX Sense microplate reader. Measurements were done in quadruplicates and represented as relative viability of the DMSO controls. IC50 values were calculated in R applying the five parameter logistic model for three independent experiments ([Ritler et al., 2020]).

Data set [2] deals with E. multilocularis metacestode vesicles. The data set is described as follows: Metacestode vesicle viability assay (ATP, CellTiter-Glo). It is filed as cell-based, Echinococcus multilocularis. As to conditions: Echinococcus multilocularis, 288 h; for viability at 10 µM: 12 days, read-out: Viability d12 (relative viability). The procedure: Viability was assessed after 12 days using the same metacestode vesicles as for the PGI release assay. Triton X-100 was added to each well to a final concentration of 0.1 %. Subsequently the metacestode vesicles were broken mechanically and 50 μL of the supernatant was mixed with 50 μL of CellTiter-Glo® buffer (Promega, Dübendorf, Switzerland). Measurements were performed on a HIDEX Sense microplate reader.
A general note: Cellular ATP, detected with luciferase, serves as a proxy for viable cell number.

Data set [3] has the same test system. Nature of the data set: Phosphoglucose isomerase (PGI) release assay (damage-marker release) on metacestode vesicles. The class given is cell-based, Echinococcus multilocularis. To be noted: for PGI d5 (relative PGI release) / PGI d12 (relative PGI release): 10 μM; for PGI d5 (relative PGI release): 5 days; for PGI d12 (relative PGI release): 12 days.
A further data set concerns mice. Also noted: method as in Almahariq et al., 2013; Maeda et al., 2020. As to conditions: ref Almahariq et al., 2013, Maeda et al., 2020, cited from earlier work.
For another data set, the system named is cancer cell lines. Also noted: method as in Maeda et al., 2020. To be noted: ref Maeda et al., 2020; cited from earlier work.
Data set [4] has as its system E. multilocularis GL cells. Nature of the data set: Seahorse mito cell stress test, oxygen consumption rate. The class given is cell-based, Echinococcus multilocularis. To be noted: titration in GL cells. The procedure: To measure mitochondrial respiration in E. multilocularis GL cells, Seahorse “mito cell stress test” was performed according to the manual for Seahorse XFp Extracellular Flux Analyzer (Agilent Technologies, Basel, Switzerland) with some adaptations ([Gu et al., 2021]; [Rufener et al., 2018]). Seahorse XFp 8-well plates were hydrated and incubated together with Seahorse XF calibrant solution at 37 °C in a non-CO2 incubator overnight the day before the actual experiment. […] Oligomycin was used at a final concentration of 1.5 μM. […] The experiment was repeated three times independently with two technical replicates.

Data set [5] has as its system E. multilocularis metacestode vesicles. Nature of the data set: Transmission electron microscopy of treated metacestode vesicles. It is filed as cell-based, Echinococcus multilocularis. To be noted: 1 μM, 24 h. The procedure:
To investigate induction of ultrastructural changes in E. multilocularis metacestode vesicles treated with ESI-09, transmission electron microscopy (TEM) was performed. Metacestode vesicles were treated with either 1 μM ESI-09 or the solvent control DMSO with subsequent incubation for 24 h at 37 °C under a humid, 5 % CO2 atmosphere. Processing and imaging was done as previously described ([Kaethner et al., 2023]).

Setting [6] is: confirmation screen, triplicates, mean.
Setting [7] is: overview screen, singlets, relative to 0.1 % Triton X-100, DMSO subtracted.

Each structure is given as a SMILES string. Like-named read-outs stand apart in the source and are kept apart here. Where only a bound is given, the exact number is not on record here.

Broadly, the IC50 is the concentration that gives 50% inhibition. A high value points to weaker potency. In general, viability refers to a read-out of living cells in per cent, often relative to untreated cells. For `CC(C)(C)c1cc(C(=O)/C(C#N)=N/Nc2cccc(Cl)c2)no1` [ESI-09], in data set [1] (80 to 0.31 μM, 5 days), the “effect on GL cell viability (in words)” value was “highly effective”. The half-maximal inhibitory concentration (IC50) in data set [1] (Echinococcus multilocularis, 120 h, 5 days incubation, microaerobic, mean ± SD of three independent experiments) was determined as 2450 ± 860 nM; in data set [2] (12 days incubation, mean ± SD of three independent experiments), 2090 ± 560 nM; in data set [3] (Echinococcus multilocularis, 288 h, 12 days incubation, mean ± SD of three independent experiments) it was 6060 ± 3180 nM. For the same compound, the viability at 10 µM in data set [2] (setting [6]) came out at 10.7%; in data set [2] (overview screen, singlets, relative to DMSO control), 7.77%. For the same compound, the figures for the “PGI d5 (relative PGI release)” value in data set [3] (setting [6]) and in data set [3] (setting [7]) were 6.08% and 33.0513%, respectively. The “PGI d12 (relative PGI release)” value in data set [3] (setting [6]) came to 38.44%; in data set [3] (setting [7]), 64.0941%. The “detachment of the GL from the laminated layer, visible from concentration” value in data set [3] (microscopy pictures, 12 days incubation) was no less than 13.3 µM. Moreover, the “tolerability in mice (in words)” value in the data set on mice (daily 10 mg/kg intraperitoneal for 21 days) and in the data set on mice (daily 50 mg/kg oral gavage up to 26 days) was “well-tolerated” each time. Moreover, in the data set on cancer cell lines, the “optimal uncoupling concentration in cancer cell lines” value was 2 µM. For the same compound, the “optimal (maximal) uncoupling concentration” value in data set [4] is 2 µM. Besides, the “ultrastructural changes in metacestode vesicles (in words)” value in data set [5] is given as “induced distinct ultrastructural changes”. Further, in data set [5], the “ultrastructural changes in mitochondria (in words)” value was “no ultrastructural changes in mitochondria were seen”.
